Paper PMC8758724, “Molecular mechanism of agonism and inverse agonism in ghrelin receptor” (Nature Communications, 2022)
Where “and” joins values, the source holds several entries; their conditions need not be identical. Equal values may be shown once. Entries after “also recorded” stand apart in the source; their conditions may differ. No end group written: not given here. *: point of attachment. Octanoyl = CCCCCCCC(=O)*

Test system: ghrelin receptor mutants
Assay: NanoBiT-G-protein dissociation, ghrelin receptor mutants, HEK293T cells, Gαio-LgBiT/Gγ-SmBiT, 3–5 min
Assay type: cell-based, human
Details: for ΔpEC50 (from the WT): single replicates
Experimental: Bars represent differences in calculated potency (pEC50) of ghrelin for mutations relative to the WT ghrelin receptor. Data are colored according to the extent of the effect. […], **P < 0.01 and ***P < 0.001. ns no significant difference, nd not detected. All data were analyzed by one-way analysis of variance (ANOVA) followed by Dunnett’s multiple comparison test, compared with the response of WT (P = 0.002, P = 0.002, P = 0.015, P < 0.001, P < 0.001, P = 0.732, P < 0.001, P = 0.843, P = 0.012, P < 0.001, P = 0.003, P < 0.001, P < 0.001 and P < 0.001 from left to right). […] See also Supplementary Figs. 6 and 7. d Detailed interaction of the octanoyl group of Ser^+3 with the key residues from cavity II and salt bridges between E124^3.33 and R283^6.55 are clearly observed in the ghrelin-bound structure.
For cryo-EM constructs, the full-length of wild-type human ghrelin receptor was subcloned into pFastBac1 vector with an N-terminal FLAG tag and C-terminal 10×His tag. We used the NanoBiT tethering strategy, in which the C-terminus of the ghrelin receptor was directly attached to the LgBiT subunit followed by a TEV protease cleavage site and a double MBP tag. Gβ1 was fused with a C-terminal HiBiT, together with Gγ2 were cloned into pFastBac dual vector. An engineered human Gαo1 with Gαo1 H domain deletion, named miniGαo1 was cloned into pFastBac1 according to published literature. The ghrelin-induced ghrelin receptor activity was measured by NanoBiT-G-protein dissociation assay using a chimeric Gαio protein according to the previous publication except for replacement Gαqo with Gαio[54]. The Gαio were generated by replacing the six amino acids of the C-terminal of Gαi with those from GαoA1. Other constructs including the full-length and various site-directed mutagenesis human ghrelin receptors were cloned into pcDNA3.1 vector for NanoBiT-G-protein dissociation assay. Ghrelin receptor, miniGαo1, and Gβ1γ2 were co-expressed in Sf9 insect cells (Expression System) using the Bac-to-Bac baculovirus expression system (ThermoFisher). The cell pellets were collected by centrifugation 48 h post infection and stored at −80 °C until use.
G-protein activation was detected by a NanoBiT-G-protein dissociation assay. In brief, HEK293T cells were plated in each well of a six-well plate at a concentration of 0.3 million/ml (2 mL per well). Plasmid transfection was performed with a mixture of 400 ng Gαio-LgBiT, 500 ng Gγ-SmBiT, 500 ng Gβ, 600 ng ghrelin receptor by Lipofectamine 2000 (ThermoFisher Scientific) in 200 μL of Opti-MEM (Gibco). After 1 day of transfection, cells in the six-well plate were digested and resuspended in complete medium DMEM (5% FBS, 1% antibiotic) and plated in a 96-well flat-bottomed white microplate. After 24 h, the cells were washed twice with D-PBS and incubated in 40 μL of 5 μM coelenterazine 400a (Maokangbio) solution diluted 0.01% BSA and 5 mM HEPES (pH 7.5)-containing HBSS (assay buffer) for 1 h at room temperature. Baseline luminescence was measured using a luminescent microplate reader (Tecan). Ghrelin (5×, diluted in the assay buffer) was added to the cells (10 μL) and incubated for 3–5 min at room temperature before the second measurement. The ligand-induced signal ratio was normalized to the baseline luminescence and fold-change signals over vehicle treatment were used to show G-protein dissociation response.

## ghrelin: endogenous agonist, 28-amino acid peptide with octanoyl modification at the side chain of Ser+3 (GSS(Octanoyl)FLSPEHQRVQQRKESKKPPAKLQPR; UniProt Q9UBU3 24-51, looked up)
E124A
  ΔpEC50 (from the WT): -1.682 and -1.692 and -1.769
E124^3.33A
  ghrelin-induced activation, effect of mutation: almost abolished the activity of the ghrelin receptor
E124^3.33A, listed as ghrelin peptide
  ghrelin-induced activation, effect of mutation: remarkably reduced the activation potency
F38A
  ΔpEC50 (from the WT): -0.347 and -0.237 and -0.393
F279^6.51A
  ghrelin-induced activation, effect of mutation: decreased the activation potency; also recorded: almost abolished the activity of the ghrelin receptor
F286A
  ΔpEC50 (from the WT): -1.001 and -0.994 and -1.053
F286^6.58A
  ghrelin-induced activation, effect of mutation: decreased the receptor activation
F290A
  ΔpEC50 (from the WT): -0.357 and -0.309 and -0.272
F309A
  ΔpEC50 (from the WT): -0.421 and -0.648 and -0.344
F309^7.39 mutant
  ghrelin-induced activation, effect of mutation: impaired ghrelin-induced G-protein signaling
F312^7.42A
  ghrelin-induced activation, effect of mutation: decreased the activation potency; also recorded: impaired ghrelin-induced G-protein signaling
I178A
  ΔpEC50 (from the WT): -0.256 and -0.542 and -0.472
I178^4.60A
  ghrelin-induced activation, effect of mutation: decreased the receptor activation
L181A
  ΔpEC50 (from the WT): -0.146 and -0.068 and -0.114
L210A
  ΔpEC50 (from the WT): -0.704 and -0.734 and -0.866
L210^5.36A
  ghrelin-induced activation, effect of mutation: decreased the receptor activation
M213A
  ΔpEC50 (from the WT): -0.105 and -0.084 and -0.1
N305A
  ΔpEC50 (from the WT): -0.736 and -0.893 and -0.758
N305^7.35A
  ghrelin-induced activation, effect of mutation: remarkably reduced the activation potency
Q302A
  ΔpEC50 (from the WT): -0.891 and -1.104 and -1.015
Q302^7.32 mutant
  ghrelin-induced activation, effect of mutation: impaired ghrelin-induced G-protein signaling
R102A
  ΔpEC50 (from the WT): -0.473 and -0.141 and -0.326
R283^6.55A
  ghrelin-induced activation, effect of mutation: almost abolished the activity of the ghrelin receptor
R283^6.55A, listed as ghrelin peptide
  ghrelin-induced activation, effect of mutation: almost abolished the efficacy
S123A
  ΔpEC50 (from the WT): -0.29 and -0.222 and -0.285
V214A
  ΔpEC50 (from the WT): -0.199 and -0.412 and -0.206
W276^6.48A
  ghrelin-induced activation, effect of mutation: decreased the activation potency; also recorded: almost abolished the activity of the ghrelin receptor
Y106A
  ΔpEC50 (from the WT): -0.423 and -0.136 and -0.417
